These results are taken from patent publication US20060148014A1, “Tubulin isotype screening in cancer therapy using hemiasterlin analogs” (priority 2004, published 2006).

Where two headings read alike, the source gives them in different places.

What all share (format): cell-based
Experiment [1] concerns panel of 19 human breast cancer cell lines. The experiment can be described thus: Cell growth inhibition assay, panel of 19 human breast cancer cell lines. The following applies: panel of 19 human breast cancer cell lines. The source says: (§1) The following human breast cancer cell lines were obtained from the ATCC. Cells were maintained according to ATCC-recommended culture conditions. AU565 (ATCC Catalog No. ATCC Catalog. No. CRL-2351), BT-20 (ATCC Catalog No. HTB-19), MCF7 (ATCC Catalog No. HTB22), MDA-MB-231 (ATCC Catalog No. HTB-26), MDA-MB-435 (ATCC Catalog No. HTB-129), MDA-MB-468 (ATCC Catalog No. HTB-132), HCC38 (ATCC Catalog No. CRL-2314), HCC70 (ATCC Catalog No. CRL-2315), HCC1143 (ATCC Catalog No. CRL-2321), HCC1428 (ATCC Catalog No. CRL-2327), HCC1500 (ATCC Catalog No. CRL-2329), HCC1806 (ATCC Catalog No. CRL-2335), HCC1954 (ATCC Catalog No. CRL-2338), HCC2218 (ATCC Catalog No. CRL-2343), UACC-812 (ATCC Catalog No. CRL-1897), UACC-893 (ATCC Catalog No. CRL-1902), ZR-75-1 (ATCC Catalog No. CRL-1500), ZR-75-30 (ATCC Catalog No. CRL-1504).
(§2) Cultured human breast cancer cells were placed in 96-well plates and grown in the continuous presence of test compounds for 4 or 7 days. To expose the cells to test compounds for 7 days, medium was replaced with fresh medium containing compounds after 4 days of exposure and cells were incubated for 3 additional days. Cell growth was assessed using modifications (Amin et al., Cancer Res., 47:6040-6045, 1987; incorporated herein by reference) of a methylene blue-based microculture assay (Finlay et al., Anal. Biochem., 139:272-277, 1984; incorporated herein by reference).
Antiproliferative effects of four tubulin-binding anticancer agents were evaluated by a methylene blue-based cell growth inhibin assay in a panel of 19 human breast cancer cell lines. The following agents were used in this study: halichondrin analog E7389, hemiasterlin analog E7974, vinblastine, and paclitaxel. Each IC50 determination was conducted in at least three separate experiments. A presence of multidrug resistance efflux pump (P-glycoprotein or PgP) could markedly affect sensitivity of cell lines to test agents and thus mask correlations between beta-tubulin expression and cell lines' sensitivity to test agents. Cell lines were therefore tested for evidence of PgP expression by monitoring effects of the PgP blocker verapamil (used at a 10 μM concentration) on paclitaxel sensitivity. No evidence for PgP expression was found in any of the cell lines tested (Table 4). […] Inter-drug correlations were seen between sensitivities to the three microtubule polymerization inhibitors E7974, E7389, and vinblastine, but not between the microtubule polymerization stabilizer paclitaxel.

In experiment [2] the test system is HCC38 human breast cancer cell line. The experiment can be described thus: Cell growth inhibition assay (methylene blue), HCC38.
From the text: as §1, §2
(§3) To investigate the possible expression of PgP by the cell lines used in this study, the antiproliferative effects of paclitaxel were determined in the presence and absence of verapamil, a known inhibitor of PgP.

Experiment [3] relates to HCC1954 human breast cancer cell line. The experiment can be described thus: Cell growth inhibition assay (methylene blue), HCC1954.
From the text: as §1, §2, §3

Setting [4] is: continuous presence of compound 4 or 7 days, at least three experiments, read-out: Average IC50.

For the molecule `CC(=O)O[C@H]1C(=O)[C@@]2(C)[C@H]([C@H](OC(=O)c3ccccc3)[C@]3(O)C[C@H](OC(=O)[C@H](O)[C@@H](NC(=O)c4ccccc4)c4ccccc4)C(C)=C1C3(C)C)[C@]1(OC(C)=O)CO[C@@H]1C[C@@H]2O` [Paclitaxel, paclitaxel], in experiment [1], the “fold-difference between IC50's in the most sensitive and the least sensitive cell line” value came out at 5.8 fold. Also, the 50% inhibitory concentration (IC50) (as a rule, the concentration that gives 50% inhibition) in experiment [2] (HCC-38, +10 μM verapamil (PgP blocker), read-out: Paclitaxel IC50 (+10 μM verapamil)) amounted to 6.2 nM; in experiment [2] (HCC-38, no verapamil, read-out: Paclitaxel IC50 (no verapamil)), 5.9 nM; in experiment [2] (setting [4]) it was 2.94 nM; in experiment [3] (HCC-1954, +10 μM verapamil (PgP blocker), read-out: Paclitaxel IC50 (+10 μM verapamil)) it was 11.7 nM; in experiment [3] (HCC-1954, no verapamil, read-out: Paclitaxel IC50 (no verapamil)), 11.7 nM; in experiment [3] (setting [4]), 8.48 nM.
